Data on 5 compounds can be found in ChEMBL document CHEMBL1201862, “PubChem BioAssay data set” (2004).

Activity calls are given as the source filed them.

Experiment [1] addresses T1, RNA-binding protein pos-1 (Caenorhabditis elegans, UniProt G5EF15).
T1 sequence (G5EF15 whole entry): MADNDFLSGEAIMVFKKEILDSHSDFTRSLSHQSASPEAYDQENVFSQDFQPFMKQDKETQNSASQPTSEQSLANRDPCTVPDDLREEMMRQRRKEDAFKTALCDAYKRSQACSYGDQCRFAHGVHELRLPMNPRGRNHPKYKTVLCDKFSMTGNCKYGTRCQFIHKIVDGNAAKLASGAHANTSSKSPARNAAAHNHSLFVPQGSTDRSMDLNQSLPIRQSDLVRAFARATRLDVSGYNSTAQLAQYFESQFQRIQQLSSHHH
The experiment in a line: disruptors of C. elegans POS-1 RNA interaction – biochemical, fluorescence polarization, dose response (AID 1964). (Polarisation of emitted light reports the rotation of a fluorescent probe.)

Experiment [2] concerns the target T2, Zinc finger protein mex-5 (Caenorhabditis elegans, UniProt Q9XUB2).
T2 sequence (Q9XUB2 whole entry): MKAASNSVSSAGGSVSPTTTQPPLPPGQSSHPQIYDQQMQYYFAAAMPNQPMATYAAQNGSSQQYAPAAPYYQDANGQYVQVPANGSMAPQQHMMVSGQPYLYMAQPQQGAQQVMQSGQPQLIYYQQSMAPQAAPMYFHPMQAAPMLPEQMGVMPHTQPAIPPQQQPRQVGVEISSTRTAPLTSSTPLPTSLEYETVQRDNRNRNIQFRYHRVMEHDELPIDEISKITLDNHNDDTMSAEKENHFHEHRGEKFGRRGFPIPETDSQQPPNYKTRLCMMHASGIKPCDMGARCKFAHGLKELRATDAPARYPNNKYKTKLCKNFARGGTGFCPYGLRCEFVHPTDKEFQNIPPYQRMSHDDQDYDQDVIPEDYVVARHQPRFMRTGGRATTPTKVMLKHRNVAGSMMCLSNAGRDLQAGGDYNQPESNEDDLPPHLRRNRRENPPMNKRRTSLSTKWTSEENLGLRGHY
The experiment in a line: potency of MEX-5 RNA-binding blockers – biochemical, C. elegans, fluorescence polarization, dose response (AID 1960).

Experiment [3] concerns the target T3, Ubiquitin-conjugating enzyme E2 N (Homo sapiens, UniProt P61088).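 Note: Dose-response confirmation in a TR-FRET assay detecting UBC13-driven polyubiquitin chain formation, inhibition measured.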
T3 sequence (P61088 whole entry): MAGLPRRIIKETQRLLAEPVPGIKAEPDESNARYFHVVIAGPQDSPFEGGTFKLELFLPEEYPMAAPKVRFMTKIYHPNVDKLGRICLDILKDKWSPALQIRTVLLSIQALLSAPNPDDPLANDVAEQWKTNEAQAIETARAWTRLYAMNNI
In kind it is functional.

The next experiment has as its target Beta-galactosidase (Escherichia coli, UniProt Q8VNN2). Kind of experiment: detection-enzyme interference by beta-gal modulators – biochemical, E. coli enzyme, set 3, artefact control for CCR6 antagonist project, dose response (AID 504712). In kind it is functional.
The target in experiment [4] is T4, Short transient receptor potential channel 4 (Mus musculus, UniProt Q9QUQ5).
T4 sequence (Q9QUQ5 whole entry): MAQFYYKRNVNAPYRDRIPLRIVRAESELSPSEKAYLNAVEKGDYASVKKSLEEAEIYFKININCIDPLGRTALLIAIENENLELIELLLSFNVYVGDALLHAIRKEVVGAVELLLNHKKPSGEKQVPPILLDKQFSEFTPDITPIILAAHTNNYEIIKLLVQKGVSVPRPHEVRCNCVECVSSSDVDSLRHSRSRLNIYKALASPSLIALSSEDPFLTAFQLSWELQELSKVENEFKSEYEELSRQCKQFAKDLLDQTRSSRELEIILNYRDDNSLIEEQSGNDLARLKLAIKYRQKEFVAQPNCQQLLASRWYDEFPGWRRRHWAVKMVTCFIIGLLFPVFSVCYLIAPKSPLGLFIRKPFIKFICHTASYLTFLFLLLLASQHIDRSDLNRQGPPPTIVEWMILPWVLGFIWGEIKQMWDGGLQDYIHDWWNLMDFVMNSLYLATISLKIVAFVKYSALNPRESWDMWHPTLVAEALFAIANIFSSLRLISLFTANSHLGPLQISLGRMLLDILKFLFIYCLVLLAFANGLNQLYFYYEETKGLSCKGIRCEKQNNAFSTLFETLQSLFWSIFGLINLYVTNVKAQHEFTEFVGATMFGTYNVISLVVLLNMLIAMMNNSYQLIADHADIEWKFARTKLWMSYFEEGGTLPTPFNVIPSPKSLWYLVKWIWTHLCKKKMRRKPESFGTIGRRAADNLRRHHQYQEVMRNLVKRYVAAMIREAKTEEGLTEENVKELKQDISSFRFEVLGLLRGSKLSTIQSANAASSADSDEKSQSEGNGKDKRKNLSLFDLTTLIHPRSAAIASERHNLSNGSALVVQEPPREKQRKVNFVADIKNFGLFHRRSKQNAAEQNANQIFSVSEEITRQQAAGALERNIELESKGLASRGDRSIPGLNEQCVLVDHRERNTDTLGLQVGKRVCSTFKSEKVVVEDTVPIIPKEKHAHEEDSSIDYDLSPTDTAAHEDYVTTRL
Kind of experiment: calcium entry via TRPC4 opening agents – cell-based, HEK293 TRPC4/mu-opioid, Fluo-4 calcium, dose response (AID 434937). In kind it is functional.

The target in another experiment is Apelin receptor (Homo sapiens, UniProt P35414). The experiment in a line: apelin receptor antagonists, arrestin read-out – cell-based, luminescent, enzyme-fragment complementation, selectivity assay for CCR6 antagonist project, SAR follow-up (AID 588359). In kind it is functional.
In experiment [5] the target is Delta-type opioid receptor (Homo sapiens, UniProt P41143). Kind of experiment: Counterscreen for agonists of heterodimerization of the mu 1 (OPRM1) and delta 1 (OPRD1) opioid receptors: Luminescence-based cell-based high throughput dose response assay to identify agonists of OPRD1 homodimerization. [Related pubchem assays (depositor defined):AID504326, AID504355, AID504692, AID504904, AID504905]. In kind it is functional.

The target of another experiment is Mu-type opioid receptor (Homo sapiens, UniProt P35372). Kind of experiment: Counterscreen for agonists of heterodimerization of the mu 1 (OPRM1) and delta 1 (OPRD1) opioid receptors: Luminescence-based cell-based high throughput dose response assay to identify agonists of OPRM1 homodimerization. In kind it is functional. (In general: Counterscreens check selectivity or assay interference.);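 note: U2OS cells expressing OPRM1 and beta-arrestin as split beta-galactosidase partners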

Experiment [6] addresses 5-hydroxytryptamine receptor 5A (Homo sapiens, UniProt P47898). The experiment in a line: Counterscreen for agonists of OPRM1-OPRD1 heterodimerization: luminescence-based cell-based high throughput dose response assay to identify agonists of 5-hydroxytryptamine (serotonin) 5A receptor (HTR5A). [Related pubchem assays (depositor defined):AID504326, AID504355, AID504692, AID504904, AID504905]. In kind it is functional.

The target in experiment [7] is T5, Acyl-homoserine lactone acylase PvdQ (Pseudomonas aeruginosa (strain LESB58), UniProt Q9I194).
T5 sequence (Q9I194 whole entry): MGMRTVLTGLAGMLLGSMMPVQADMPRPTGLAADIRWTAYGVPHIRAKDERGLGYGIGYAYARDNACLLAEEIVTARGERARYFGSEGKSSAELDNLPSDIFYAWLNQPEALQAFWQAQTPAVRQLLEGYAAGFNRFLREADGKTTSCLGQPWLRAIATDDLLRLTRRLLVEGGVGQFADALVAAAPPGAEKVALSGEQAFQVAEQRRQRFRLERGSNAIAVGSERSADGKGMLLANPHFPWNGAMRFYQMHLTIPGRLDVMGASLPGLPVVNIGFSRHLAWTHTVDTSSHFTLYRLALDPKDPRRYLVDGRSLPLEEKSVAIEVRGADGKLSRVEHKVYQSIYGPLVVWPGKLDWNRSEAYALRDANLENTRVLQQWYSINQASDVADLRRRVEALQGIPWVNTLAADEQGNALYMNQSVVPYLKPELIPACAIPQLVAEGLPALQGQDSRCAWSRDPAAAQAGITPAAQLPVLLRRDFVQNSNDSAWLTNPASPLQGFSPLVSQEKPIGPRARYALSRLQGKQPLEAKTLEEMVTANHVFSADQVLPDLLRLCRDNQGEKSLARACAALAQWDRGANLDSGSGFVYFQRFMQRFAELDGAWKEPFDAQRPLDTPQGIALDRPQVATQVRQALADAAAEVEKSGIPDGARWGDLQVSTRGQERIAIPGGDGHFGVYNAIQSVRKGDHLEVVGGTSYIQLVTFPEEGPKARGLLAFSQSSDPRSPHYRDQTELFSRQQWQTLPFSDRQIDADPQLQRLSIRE
Kind of experiment: PvdQ acylase enzyme activity blockers – biochemical, fluorescence, plate reader and imaging, cherry-picks, dose response (AID 493231).

A further experiment deals with HEK293. The experiment in a line: cells. In kind it is functional, cell-based. Conditions: Homo sapiens.
Experiment [8] addresses Nuclear receptor subfamily 0 group B member 1 (Homo sapiens, UniProt P51843). Kind of experiment: Luminescence-based cell-based high throughput dose response assay for inhibitors of the orphan nuclear receptor subfamily 0, group B, member 1 (DAX1; NR0B1). [Related pubchem assays (depositor defined):AID504766, AID504790]. In kind it is functional.
Experiment [9] deals with T6, Rac GTPase-activating protein 1 (Homo sapiens, UniProt Q9H0H5).
T6 sequence (Q9H0H5 whole entry): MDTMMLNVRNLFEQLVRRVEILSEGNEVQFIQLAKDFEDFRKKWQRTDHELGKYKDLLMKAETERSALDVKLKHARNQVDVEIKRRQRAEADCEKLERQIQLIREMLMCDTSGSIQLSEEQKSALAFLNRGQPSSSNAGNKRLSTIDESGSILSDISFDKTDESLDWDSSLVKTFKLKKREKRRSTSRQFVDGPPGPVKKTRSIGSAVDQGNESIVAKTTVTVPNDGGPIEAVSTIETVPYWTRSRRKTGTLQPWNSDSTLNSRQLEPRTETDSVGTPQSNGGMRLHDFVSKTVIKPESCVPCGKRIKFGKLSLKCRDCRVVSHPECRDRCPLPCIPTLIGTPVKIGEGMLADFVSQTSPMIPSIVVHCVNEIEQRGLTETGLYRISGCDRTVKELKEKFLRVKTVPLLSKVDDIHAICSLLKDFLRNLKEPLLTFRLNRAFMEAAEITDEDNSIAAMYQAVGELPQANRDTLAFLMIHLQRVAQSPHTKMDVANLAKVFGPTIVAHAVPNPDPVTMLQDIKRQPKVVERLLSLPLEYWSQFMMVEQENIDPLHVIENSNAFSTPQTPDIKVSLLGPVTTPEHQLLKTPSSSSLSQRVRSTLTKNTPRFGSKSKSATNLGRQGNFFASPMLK
Kind of experiment: blockers of MgcRacGAP-driven Rac1 GTP hydrolysis – biochemical, ADP Hunter fluorescence, primary and confirmatory, confirmation (AID 624330). In kind it is functional.

Experiment [10] addresses T7, Heat shock factor protein 1 (Mus musculus, UniProt P38532).
T7 sequence (P38532 whole entry): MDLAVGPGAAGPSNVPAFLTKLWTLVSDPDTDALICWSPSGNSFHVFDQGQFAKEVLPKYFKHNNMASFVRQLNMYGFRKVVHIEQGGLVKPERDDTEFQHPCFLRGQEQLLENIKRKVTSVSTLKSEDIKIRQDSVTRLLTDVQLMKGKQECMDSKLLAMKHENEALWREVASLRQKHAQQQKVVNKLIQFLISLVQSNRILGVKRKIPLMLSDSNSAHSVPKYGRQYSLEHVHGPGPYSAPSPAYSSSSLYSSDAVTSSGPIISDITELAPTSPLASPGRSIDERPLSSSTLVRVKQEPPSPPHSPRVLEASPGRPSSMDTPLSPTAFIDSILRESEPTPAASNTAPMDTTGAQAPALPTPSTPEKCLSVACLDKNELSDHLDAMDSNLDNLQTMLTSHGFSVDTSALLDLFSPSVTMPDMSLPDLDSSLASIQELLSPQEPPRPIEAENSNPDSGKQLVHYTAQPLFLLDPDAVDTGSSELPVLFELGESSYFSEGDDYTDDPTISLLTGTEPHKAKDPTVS
The experiment in a line: decrease of HSF1-responsive luciferase luminescence – cell-based, NIH3T3, dose retest, confirmation (AID 2382).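 Note: NIH3T3 fibroblasts with HSF1-driven luciferase reporter stressed by proteasome inhibitor MG132; luminescence from HSF1-driven luciferase expression after 8 hours of MG132 stress.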 In kind it is functional.

The target in experiment [11] is Luciferin 4-monooxygenase (Photinus pyralis, UniProt P08659). Kind of experiment: inhibition of purified Photinus pyralis luciferase – biochemical, luminescence, dose response (AID 1891).
Experiment [12] in a line: Luminescence Cell-Based Dose Confirmation HTS to Identify Inhibitors of Platelet Dense Granule Release. [Related pubchem assays: 1663 (Primary HTS), 1678 (Summary of Project)]. In kind it is functional.
The next experiment relates to HeLa. The experiment in a line: ATP-based viability loss in HeLa cells – cell-based, CellTiter-Glo luminescence, cherry-pick samples, cytotoxicity control for MITF activator project, dose response (AID 540259). In kind it is functional. Conditions: Homo sapiens.
The next experiment relates to Escherichia coli. Kind of experiment: microbe, parasite or virus in culture.

Sequence of Mu-type opioid receptor (P35372 whole entry): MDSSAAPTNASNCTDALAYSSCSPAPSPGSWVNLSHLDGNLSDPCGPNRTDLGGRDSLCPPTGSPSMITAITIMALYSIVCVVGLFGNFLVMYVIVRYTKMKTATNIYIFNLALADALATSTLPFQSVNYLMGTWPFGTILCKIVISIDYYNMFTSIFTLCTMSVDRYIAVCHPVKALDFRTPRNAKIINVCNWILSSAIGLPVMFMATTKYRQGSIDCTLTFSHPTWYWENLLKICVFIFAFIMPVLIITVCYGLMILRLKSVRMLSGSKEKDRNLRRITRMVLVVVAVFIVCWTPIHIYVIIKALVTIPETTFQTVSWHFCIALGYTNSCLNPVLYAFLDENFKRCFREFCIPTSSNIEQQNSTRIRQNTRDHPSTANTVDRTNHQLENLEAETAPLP
Sequence of 5-hydroxytryptamine receptor 5A (P47898 whole entry): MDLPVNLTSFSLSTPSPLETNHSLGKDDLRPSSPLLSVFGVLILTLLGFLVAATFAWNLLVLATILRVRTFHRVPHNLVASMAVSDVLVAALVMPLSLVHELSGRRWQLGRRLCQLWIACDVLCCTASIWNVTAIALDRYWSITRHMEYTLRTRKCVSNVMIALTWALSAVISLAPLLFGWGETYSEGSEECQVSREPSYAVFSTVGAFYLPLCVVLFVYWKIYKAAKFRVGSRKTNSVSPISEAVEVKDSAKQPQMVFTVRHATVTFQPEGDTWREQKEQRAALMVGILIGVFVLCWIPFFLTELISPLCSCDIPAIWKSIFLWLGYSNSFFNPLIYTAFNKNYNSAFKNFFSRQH
Sequence of Delta-type opioid receptor (P41143 whole entry): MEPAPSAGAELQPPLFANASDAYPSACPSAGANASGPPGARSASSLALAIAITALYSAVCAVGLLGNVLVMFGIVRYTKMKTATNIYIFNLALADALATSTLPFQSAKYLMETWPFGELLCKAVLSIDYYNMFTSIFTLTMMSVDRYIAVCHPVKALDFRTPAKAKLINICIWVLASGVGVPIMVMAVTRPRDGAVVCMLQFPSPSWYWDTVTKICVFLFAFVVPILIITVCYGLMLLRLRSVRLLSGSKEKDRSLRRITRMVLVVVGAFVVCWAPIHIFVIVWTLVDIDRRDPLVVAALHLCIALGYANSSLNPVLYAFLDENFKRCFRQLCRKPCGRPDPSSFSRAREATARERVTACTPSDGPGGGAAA
Sequence of Nuclear receptor subfamily 0 group B member 1 (P51843 whole entry): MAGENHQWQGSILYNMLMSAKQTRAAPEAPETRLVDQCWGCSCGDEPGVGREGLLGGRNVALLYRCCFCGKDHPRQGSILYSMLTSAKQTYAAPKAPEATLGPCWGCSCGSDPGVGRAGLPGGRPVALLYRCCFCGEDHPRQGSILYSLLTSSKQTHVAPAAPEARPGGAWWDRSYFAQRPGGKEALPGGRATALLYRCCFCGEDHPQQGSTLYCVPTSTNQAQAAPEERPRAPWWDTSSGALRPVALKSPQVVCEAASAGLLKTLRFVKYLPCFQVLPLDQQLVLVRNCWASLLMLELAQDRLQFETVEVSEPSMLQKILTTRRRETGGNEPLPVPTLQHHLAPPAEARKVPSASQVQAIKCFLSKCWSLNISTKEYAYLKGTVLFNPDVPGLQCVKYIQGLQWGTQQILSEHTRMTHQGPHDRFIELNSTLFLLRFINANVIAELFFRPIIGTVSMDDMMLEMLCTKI
Sequence of Apelin receptor (P35414 whole entry, the tested form may be a part): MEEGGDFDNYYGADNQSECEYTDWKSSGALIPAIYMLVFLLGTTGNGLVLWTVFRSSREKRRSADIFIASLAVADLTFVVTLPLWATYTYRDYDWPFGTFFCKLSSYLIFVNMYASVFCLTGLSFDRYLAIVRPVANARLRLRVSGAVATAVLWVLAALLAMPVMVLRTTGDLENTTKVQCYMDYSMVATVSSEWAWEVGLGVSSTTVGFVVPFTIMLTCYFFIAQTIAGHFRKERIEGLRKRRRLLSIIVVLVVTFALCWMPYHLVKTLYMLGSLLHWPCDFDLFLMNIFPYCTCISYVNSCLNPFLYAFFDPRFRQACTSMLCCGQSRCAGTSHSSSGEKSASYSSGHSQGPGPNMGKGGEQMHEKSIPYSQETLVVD
Sequence of Luciferin 4-monooxygenase (P08659 whole entry): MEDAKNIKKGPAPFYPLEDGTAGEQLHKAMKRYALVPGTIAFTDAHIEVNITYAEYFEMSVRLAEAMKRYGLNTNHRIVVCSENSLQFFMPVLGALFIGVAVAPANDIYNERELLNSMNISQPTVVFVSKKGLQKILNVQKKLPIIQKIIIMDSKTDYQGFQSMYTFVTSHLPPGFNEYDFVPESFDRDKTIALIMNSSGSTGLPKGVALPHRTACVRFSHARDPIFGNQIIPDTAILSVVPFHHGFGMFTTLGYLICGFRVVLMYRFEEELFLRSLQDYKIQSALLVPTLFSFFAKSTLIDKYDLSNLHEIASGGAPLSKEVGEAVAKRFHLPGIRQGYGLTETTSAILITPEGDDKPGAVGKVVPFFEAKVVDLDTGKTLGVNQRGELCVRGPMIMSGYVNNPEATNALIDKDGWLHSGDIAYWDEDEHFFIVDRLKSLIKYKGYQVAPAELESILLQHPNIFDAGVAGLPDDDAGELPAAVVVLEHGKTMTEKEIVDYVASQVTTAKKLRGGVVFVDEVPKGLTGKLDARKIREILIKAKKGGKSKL
Sequence of Beta-galactosidase (Q8VNN2 whole entry): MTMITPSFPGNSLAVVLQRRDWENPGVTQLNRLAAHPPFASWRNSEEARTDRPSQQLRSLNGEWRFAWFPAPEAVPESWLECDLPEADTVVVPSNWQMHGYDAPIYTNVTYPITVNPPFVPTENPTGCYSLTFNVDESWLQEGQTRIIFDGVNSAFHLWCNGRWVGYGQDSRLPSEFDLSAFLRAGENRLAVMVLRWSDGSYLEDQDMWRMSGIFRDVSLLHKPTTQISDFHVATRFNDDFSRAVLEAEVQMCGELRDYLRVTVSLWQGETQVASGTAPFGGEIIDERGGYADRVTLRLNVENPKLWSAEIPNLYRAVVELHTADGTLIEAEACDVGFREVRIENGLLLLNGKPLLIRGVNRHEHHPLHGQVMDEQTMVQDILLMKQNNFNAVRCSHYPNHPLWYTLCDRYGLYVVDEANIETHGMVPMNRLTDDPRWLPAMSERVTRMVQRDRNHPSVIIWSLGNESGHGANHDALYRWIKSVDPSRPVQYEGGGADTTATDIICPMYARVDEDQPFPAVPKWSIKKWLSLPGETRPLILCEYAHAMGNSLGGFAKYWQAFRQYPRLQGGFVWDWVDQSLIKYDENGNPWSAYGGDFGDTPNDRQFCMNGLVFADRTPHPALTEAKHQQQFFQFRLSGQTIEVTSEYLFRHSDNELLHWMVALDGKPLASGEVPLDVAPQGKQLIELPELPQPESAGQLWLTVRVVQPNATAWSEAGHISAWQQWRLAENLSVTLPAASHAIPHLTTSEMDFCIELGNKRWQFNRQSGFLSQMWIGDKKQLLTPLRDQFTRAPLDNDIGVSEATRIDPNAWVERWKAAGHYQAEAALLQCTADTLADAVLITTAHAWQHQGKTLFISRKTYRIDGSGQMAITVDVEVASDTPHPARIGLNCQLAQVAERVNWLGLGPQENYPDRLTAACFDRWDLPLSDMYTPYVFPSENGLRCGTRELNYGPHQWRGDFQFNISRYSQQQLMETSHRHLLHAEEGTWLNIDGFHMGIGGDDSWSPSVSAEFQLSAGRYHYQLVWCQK

Consider `COCCCn1c(N)c(-c2nc3ccccc3n2C)c2nc3ccccc3nc21`, for which the half-maximal effective concentration (EC50) in experiment [1] was 40.4 µM (active); in experiment [2], 40.6 µM (active); in [4], 2.66 µM (active); in [5], > 92.5 µM (inactive); on Mu-type opioid receptor, > 92.5 µM (inactive); in experiment [6], > 92.5 µM (inactive). Besides, the results for the IC50 (in experiment [3]; on Beta-galactosidase; at Apelin receptor) were > 20 µM (inactive), > 66.6 µM (inactive) and 19.3 µM (active), respectively.

Turning to `CCOc1ccc(CNC2CCCc3ccccc32)cc1` (centres undefined), the AC50 in experiment [7] is 12.3 µM (active). The IC50 in the experiment with HEK293 was > 67.5 µM (inactive); in [8], > 67.5 µM (inactive); in experiment [9], 202 µM (active).

As for `COc1ccc(/C=C/C(=O)NC(=S)NCCc2ccc(OC)c(OC)c2)cc1`, the concentration giving a half-maximal response (EC50) in [10] is 13.6 µM (active); in experiment [5] it was > 92.5 µM (inactive); at Mu-type opioid receptor it was > 92.5 µM (inactive); in experiment [6] it was > 92.5 µM (inactive).

As for `COc1ccc(/C=N/Nc2ccccn2)cc1O`, the EC50 is 17.6 µM (active) in [11] and 12.5 µM (active) in experiment [12]. Besides, the values for the AC50 with HeLa and in the experiment on Escherichia coli were 282 µM (active) and 31.1 µM (active), respectively. Moreover, in experiment [9], the IC50 is 70.2 µM (active).

Turning to `O=C(COc1ccc(Cl)cc1Cl)c1ccc[nH]1`, the IC50 (in the experiment with HEK293; in experiment [8]) was > 67.6 µM (inactive) throughout.

As usually defined, the EC50 is the concentration needed to bring the measured effect to its halfway point. Broadly, the IC50 is the concentration at which inhibition is half-maximal. In general, AC50 refers to the concentration at which the activity in the assay is half-maximal.
